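Results reflect a 48-hour exposure of cells in 96-well plates to compound at five concentrations. At the GI50, growth is halved.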 The source made the active and inactive calls. No stated cut-off is given here; in the data, active = GI50 up to about 1.1 µM and inactive = higher.
Columns and labels:
Test in all cases: growth of human tumour cells (NCI), 48 h
ACHN = tested on: ACHN
HL-60 = tested on: HL-60
OVCAR-3 = tested on: OVCAR-3
MDA-N = tested on: MDA-N
UACC-257 = tested on: UACC-257
MDA-MB-231 = tested on: MDA-MB-231
SF-539 = tested on: SF-539
OVCAR-8 = tested on: OVCAR-8
NCI-H522 = tested on: NCI-H522
COLO 205 = tested on: COLO 205
HOP-92 = tested on: HOP-92
CAKI-1 = tested on: CAKI-1
HCT-116 = tested on: HCT-116
SK-MEL-2 = tested on: SK-MEL-2
BT-549 = tested on: BT-549
NCI/ADR-RES = tested on: NCI/ADR-RES
U-251 = tested on: U-251
SNB-75 = tested on: SNB-75
UO-31 = tested on: UO-31
SK-OV-3 = tested on: SK-OV-3

Structure (SMILES)	GI50 (ACHN)	GI50 (HL-60)	GI50 (OVCAR-3)	GI50 (MDA-N)	GI50 (UACC-257)	GI50 (MDA-MB-231)	GI50 (SF-539)	GI50 (OVCAR-8)	GI50 (NCI-H522)	GI50 (COLO 205)	GI50 (HOP-92)	GI50 (CAKI-1)	GI50 (HCT-116)	GI50 (SK-MEL-2)	GI50 (BT-549)	GI50 (NCI/ADR-RES)	GI50 (U-251)	GI50 (SNB-75)	GI50 (UO-31)	GI50 (SK-OV-3)
COc1ccccc1/C=C1/Sc2scc(CC(=O)Nc3ccccc3)[n+]2C1=O	28.9 µM (inactive)	15 µM (inactive)	16.9 µM (inactive)	20.2 µM (inactive)	25.1 µM (inactive)	23 µM (inactive)	36.3 µM (inactive)	31.8 µM (inactive)	20.3 µM (inactive)	20.4 µM (inactive)	17 µM (inactive)	53 µM (inactive)	24.6 µM (inactive)	19.1 µM (inactive)	15.3 µM (inactive)	19.8 µM (inactive)	33 µM (inactive)	26.9 µM (inactive)	17.9 µM (inactive)	27.5 µM (inactive)
COc1cc(C)c2c(c1C=O)Oc1c(c(C)c(O)c3c1C(O)OC3=O)OC2=O (stereo not given) [STICTIC ACID]	22 µM (inactive)	23.3 µM (inactive)	32.5 µM (inactive)	17.5 µM (inactive)	47.9 µM (inactive)	23.3 µM (inactive)	31.5 µM (inactive)	31.4 µM (inactive)	24.9 µM (inactive)	28.3 µM (inactive)	99.3 µM (inactive)	> 100 µM (inactive)	36.8 µM (inactive)	> 10 µM (inactive)	35.2 µM (inactive)	37.2 µM (inactive)	33.5 µM (inactive)	26.6 µM (inactive)	29.1 µM (inactive)	49.5 µM (inactive)
COc1ccc(NC(=O)C(=O)C(CC2C(=O)NC(=S)NC2=O)C(=O)c2ccc3ccccc3c2)c([N+](=O)[O-])c1 (stereo not given)	> 100 µM (inactive)	> 100 µM (inactive)	> 100 µM (inactive)	> 100 µM (inactive)	> 100 µM (inactive)	> 100 µM (inactive)	> 100 µM (inactive)	> 100 µM (inactive)	> 100 µM (inactive)	> 100 µM (inactive)	> 100 µM (inactive)	> 100 µM (inactive)	> 100 µM (inactive)	> 100 µM (inactive)	> 100 µM (inactive)	> 100 µM (inactive)	> 100 µM (inactive)	> 100 µM (inactive)	> 100 µM (inactive)	> 100 µM (inactive)
CC(=O)OCCOCCN1CCN(C2=C(Cl)C(=O)c3c(O)ccc(O)c3C2=O)CC1	0.286 µM (active)	0.0394 µM (active)	0.723 µM (active)	0.497 µM (active)	1.02 µM (active)	0.397 µM (active)	1.71 µM (inactive)	0.685 µM (active)	0.265 µM (active)	0.231 µM (active)	0.294 µM (active)	0.339 µM (active)	0.305 µM (active)	1.63 µM (inactive)	0.776 µM (active)	0.296 µM (active)	2.13 µM (inactive)	2.06 µM (inactive)	1.22 µM (inactive)	3.66 µM (inactive)
COC(=O)NC1=NNC(=O)c2ccccc2N1	> 100 µM (inactive)	> 100 µM (inactive)	> 100 µM (inactive)	> 100 µM (inactive)	> 100 µM (inactive)	> 100 µM (inactive)	> 100 µM (inactive)	> 100 µM (inactive)	> 100 µM (inactive)	> 100 µM (inactive)	> 100 µM (inactive)	> 100 µM (inactive)	> 100 µM (inactive)	> 100 µM (inactive)	> 100 µM (inactive)	> 100 µM (inactive)	> 100 µM (inactive)	> 100 µM (inactive)	> 100 µM (inactive)	> 100 µM (inactive)
O=C1C(Cl)=C(N2CCN(C3=C(Cl)C(=O)c4ccccc4C3=O)CC2)C(=O)c2ccccc21	1.64 µM (inactive)	0.0841 µM (active)	1.6 µM (inactive)	1.86 µM (inactive)	1.46 µM (inactive)	1.64 µM (inactive)	1.73 µM (inactive)	1.69 µM (inactive)	0.652 µM (active)	1.69 µM (inactive)	1.04 µM (active)	1.79 µM (inactive)	1.44 µM (inactive)	1.74 µM (inactive)	1.73 µM (inactive)	1.92 µM (inactive)	3.13 µM (inactive)	2.86 µM (inactive)	1.45 µM (inactive)	14.1 µM (inactive)
C1COC(NC(C2CC2)C2CC2)=N1 [RILMENIDINE]	> 100 µM (inactive)	> 100 µM (inactive)	> 100 µM (inactive)	> 100 µM (inactive)	> 100 µM (inactive)	> 100 µM (inactive)	> 100 µM (inactive)	> 100 µM (inactive)	> 100 µM (inactive)	> 100 µM (inactive)	> 100 µM (inactive)	> 100 µM (inactive)	> 100 µM (inactive)	> 100 µM (inactive)	> 100 µM (inactive)	> 100 µM (inactive)	> 100 µM (inactive)	31.1 µM (inactive)	> 100 µM (inactive)	> 100 µM (inactive)
